Laboratory results: patent US6294539A, “Heterocyclic hydroxamic acid derivatives as MMP inhibitors” (Advanced Syntech, LLC, priority 2000, dated 2001)

Target: MMP-9 (Homo sapiens, UniProt P14780)
Experiment: MMP-9 inhibition assay (internally quenched fluorescent peptide substrate)
Format: biochemical
Conditions: 1 μM; purified MMP-9 enzyme, incubation at 37 C
Method: Each of the compounds of Examples 5-12 were assayed for their efficacy as MMP-9 inhibitors. The assay for MMP-9 inhibitors was performed by mixing purified MMP-9 enzyme with assay buffer, substrate, and compound to be tested. The substrate is an internally quenched fluorescent peptide that becomes unquenched upon cleavage by MMP-9 enzyme. After incubation at 37 C., the assay is stopped by addition of EDTA solution and the fluorescence is measured. The fluorescence is directly proportional to enzyme activity. A compound that is an inhibitor of MMP-9 activity will reduce the resultant fluorescent values.

MMP-9, sequence (P14780 94-707, species assumed): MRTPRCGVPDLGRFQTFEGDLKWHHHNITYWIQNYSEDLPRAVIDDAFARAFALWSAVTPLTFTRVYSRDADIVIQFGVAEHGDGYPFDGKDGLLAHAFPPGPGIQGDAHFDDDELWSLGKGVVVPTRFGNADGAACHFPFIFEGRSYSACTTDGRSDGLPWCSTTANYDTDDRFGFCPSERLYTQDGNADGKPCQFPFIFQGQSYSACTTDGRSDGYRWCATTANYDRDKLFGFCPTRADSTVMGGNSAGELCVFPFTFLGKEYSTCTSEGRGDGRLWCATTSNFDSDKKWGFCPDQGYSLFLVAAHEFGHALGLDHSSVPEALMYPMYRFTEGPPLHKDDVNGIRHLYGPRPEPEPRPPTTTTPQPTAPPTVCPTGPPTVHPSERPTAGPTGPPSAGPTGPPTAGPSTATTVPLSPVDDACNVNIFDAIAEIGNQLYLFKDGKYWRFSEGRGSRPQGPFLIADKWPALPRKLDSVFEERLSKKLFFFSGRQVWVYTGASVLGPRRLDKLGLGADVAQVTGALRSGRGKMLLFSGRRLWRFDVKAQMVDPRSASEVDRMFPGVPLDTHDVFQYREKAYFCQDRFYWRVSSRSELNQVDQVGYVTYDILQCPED

inhibition at 1 µM [%] | Structure (SMILES)
62 | COc1ccc(S(=O)(=O)N(CCc2cccc(Cl)c2)CC(=O)N2CC(=O)N(Cc3cc(OC)cc(OC)c3)CC2CC(=O)NO)cc1 (stereo not drawn) [Example 7, 2-{1-[N-(3-Chlorophenethyl)-N-(4-methoxybenzenesufonyl)-aminoacetyl]-4-(3,5-dimethoxybenzyl)-5-oxo-piperazin-2-yl}-N-hydroxy-acetamide]
42 | COc1ccc(CCN(CC(=O)N2CC(=O)N(Cc3ccc(F)cc3)CC2CC(=O)NO)S(=O)(=O)c2ccc(OC)cc2)cc1 (stereo not drawn) [Example 5, 2-{4-(4-fluorobenzyl)-1-[N-(4-methoxybenzenesufonyl)-N-(4-methoxyphenethyl)-aminoacetyl]-5-oxo-piperazin-2-yl}-N-hydroxy-acetamide]
52 | COc1ccc(S(=O)(=O)N(CCc2cccc(Cl)c2)CC(=O)N2CC(=O)N(Cc3ccc(F)cc3)CC2CC(=O)NO)cc1 (stereo not drawn) [Example 4, 2-{1-[N-(3-Chlorophenethyl)-N-(4-methoxybenzenesufonyl)-aminoacetyl]-4-(4-fluorobenzyl)-5-oxo-piperazin-2-yl}-N-hydroxy-acetamide]
35 | COc1ccc(CCN(CC(=O)N2CC(=O)N(Cc3cc(OC)cc(OC)c3)CC2CC(=O)NO)S(=O)(=O)c2ccc(OC)cc2)cc1 (stereo not drawn) [Example 8, 2-{4-(3,5-Dimethoxybenzyl)-1-[N-(4-methoxybenzenesufonyl)-N-(4-methoxyphenethyl)-aminoacetyl]-5-oxo-piperazin-2-yl}-N-hydroxy-acetamide]

Same assay, conditions: purified MMP-9 enzyme, incubation at 37 C

IC50 [nM] | Structure (SMILES)
100 | COc1ccc(CCN(CC(=O)N2C(CC(=O)NO)CN(Cc3ccc(F)cc3)C(=O)[C@@H]2C)S(=O)(=O)c2ccc(OC)cc2)cc1 (stereo partly drawn) [Example 6, 2-{4-(4-Fluorobenzyl)-1-[N-(4-methoxybenzenesufonyl)-N-(4-methoxyphenethyl)-aminoacetyl]-6-(S)-methyl-5-oxo-piperazin-2-yl}-N-hydroxy-acetamide]
150 | COc1ccc(CCN(CC(=O)N2C(CC(=O)NO)CN(Cc3cc(OC)cc(OC)c3)C(=O)[C@@H]2C)S(=O)(=O)c2ccc(OC)cc2)cc1 (stereo partly drawn) [Example 10, 2-{4-(3,5-dimethoxybenzyl)-1-[N-(4-methoxybenzenesufonyl)-N-(4-methoxyphenethyl)-aminoacetyl]-6-(S)-methyl-5-oxo-piperazin-2-yl}-N-hydroxy-acetamide]
50 | COc1ccc(S(=O)(=O)N(CCc2cccc(Cl)c2)CC(=O)N2C(CC(=O)NO)CN(Cc3ccc(F)cc3)C(=O)[C@@H]2C)cc1 (single isomer, unassigned) [3A (isomer A)]
53 | COc1ccc(S(=O)(=O)N(CCc2cccc(Cl)c2)CC(=O)N2C(CC(=O)NO)CN(Cc3ccc(F)cc3)C(=O)[C@@H]2C)cc1 (single isomer, unassigned) [3B (isomer B)]
120 | COc1ccc(S(=O)(=O)N(CCc2cccc(Cl)c2)CC(=O)N2C(CC(=O)NO)CN(Cc3cc(OC)cc(OC)c3)C(=O)[C@@H]2C)cc1 (stereo partly drawn) [Example 9, 2-{1-[N-(3-Chlorophenethyl)-N-(4-methoxybenzenesufonyl)-aminoacetyl]4-(3,5-dimethoxybenzyl)-6-(S)-methyl-5-oxo-piperazin-2-yl}-N-hydroxy-acetamide]
